The values below come from ChEMBL document CHEMBL3400050, “The synthesis and evaluation of sesamol and benzodioxane derivatives as inhibitors of monoamine oxidase” (Bioorg Med Chem Lett, 2015).

The species entered for one data set is Homo sapiens. Briefly: Selectivity index, ratio of IC50 for human recombinant MAOA to IC50 for human recombinant MAOB.
Data set [1] concerns the target T1, Amine oxidase [flavin-containing] B (Homo sapiens, UniProt P27338).
T1 sequence (P27338 whole entry): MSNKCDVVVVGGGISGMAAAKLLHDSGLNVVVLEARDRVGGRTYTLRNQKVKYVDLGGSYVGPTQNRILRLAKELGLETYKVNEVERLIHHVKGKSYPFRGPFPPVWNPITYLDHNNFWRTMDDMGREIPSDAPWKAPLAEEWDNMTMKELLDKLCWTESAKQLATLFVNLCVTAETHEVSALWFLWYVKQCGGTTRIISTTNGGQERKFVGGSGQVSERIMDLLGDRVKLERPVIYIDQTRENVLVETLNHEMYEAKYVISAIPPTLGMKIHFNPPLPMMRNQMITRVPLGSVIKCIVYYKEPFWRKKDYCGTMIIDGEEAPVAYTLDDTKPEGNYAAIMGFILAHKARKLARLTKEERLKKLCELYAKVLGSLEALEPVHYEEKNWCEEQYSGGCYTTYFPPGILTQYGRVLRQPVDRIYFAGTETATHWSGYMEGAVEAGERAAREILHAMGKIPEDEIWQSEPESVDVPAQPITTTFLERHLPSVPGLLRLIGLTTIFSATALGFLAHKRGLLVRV
Briefly: Inhibition of human recombinant MAOB using kynuramine substrate assessed as reduction in MAO-generated 4-hydroxyquinoline level by fluorescence spectrophotometry.

Data set [2] addresses T2, Amine oxidase [flavin-containing] A (Homo sapiens, UniProt P21397).
T2 sequence (P21397 whole entry): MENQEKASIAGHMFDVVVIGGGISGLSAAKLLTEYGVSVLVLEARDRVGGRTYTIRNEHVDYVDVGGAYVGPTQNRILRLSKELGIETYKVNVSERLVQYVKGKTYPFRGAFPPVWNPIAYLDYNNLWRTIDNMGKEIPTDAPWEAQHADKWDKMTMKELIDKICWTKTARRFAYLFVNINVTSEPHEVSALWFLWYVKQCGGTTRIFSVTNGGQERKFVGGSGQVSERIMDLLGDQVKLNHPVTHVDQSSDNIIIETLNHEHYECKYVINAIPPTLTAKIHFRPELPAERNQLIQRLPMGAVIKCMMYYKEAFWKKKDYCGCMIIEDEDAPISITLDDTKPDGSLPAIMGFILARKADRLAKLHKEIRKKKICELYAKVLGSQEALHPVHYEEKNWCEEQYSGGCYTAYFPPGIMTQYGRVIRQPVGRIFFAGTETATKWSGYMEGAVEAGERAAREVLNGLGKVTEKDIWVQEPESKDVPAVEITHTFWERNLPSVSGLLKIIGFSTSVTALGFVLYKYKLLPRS
Nature of the data set: Inhibition of human recombinant MAOA at 100 uM using kynuramine substrate assessed as reduction in MAO-generated 4-hydroxyquinoline level by fluorescence spectrophotometry.

The target in data set [3] is T2, Amine oxidase [flavin-containing] A. Nature of the data set: Inhibition of human recombinant MAOA using kynuramine substrate assessed as reduction in MAO-generated 4-hydroxyquinoline level by fluorescence spectrophotometry.
The target in data set [4] is T1, Amine oxidase [flavin-containing] B. Briefly: Competitive inhibition of human recombinant MAOB using kynuramine substrate assessed as reduction in MAO-generated 4-hydroxyquinoline level by Lineweaver-Burk plot.
For data set [5] the target is unchanged. Briefly: Reversible inhibition of human recombinant MAOB pre-incubated for 15 mins at 4 times IC50 level using kynuramine substrate assessed as enzyme catalytic activity by measuring 4-hydroxyquinoline level after 20 mins by fluorescence spectrophotometry. On the set-up: scale not given: the % may be the effect or the level left.
The target is the same in data set [6]. Nature of the data set: Reversible inhibition of human recombinant MAOB pre-incubated for 15 mins at 4 times IC50 level subsequently dialysed for 24 hrs followed by two fold dilution with kynuramine substrate assessed as enzyme catalytic activity by measuring 4-hydroxyquinoline level after 20 mins by fluorescence spectrophotometry. On the set-up: scale not given: the % may be the effect or the level left.

Structures are written as SMILES.

With `Clc1ccc(OCCOc2ccc3c(c2)OCCO3)cc1`, in the data set listed under Homo sapiens, the Ratio IC50 was over 287. In addition, the IC50 in data set [1] is 348 nM. Besides, the “inhibition (INH)” value in data set [2] is reported as “Not Active”.
Regarding `Clc1ccc(OCCOc2ccc3c(c2)OCO3)cc1`, the Ratio IC50 in the data set filed under Homo sapiens is over 59. Further, the IC50 in data set [1] worked out at 1690 nM. The “inhibition (INH)” value in data set [2] is “Not Active”.
Take `c1ccc(COc2ccc3c(c2)OCCO3)cc1`: the Ratio IC50 in the data set listed under Homo sapiens is 215. The results for the IC50 in data set [1] and in data set [3] were 168 nM and 36000 nM, respectively.
As for `c1ccc(OCCOc2ccc3c(c2)OCO3)cc1`, in the data set filed under Homo sapiens, the Ratio IC50 is over 88. In addition, in data set [1], the IC50 was found to be 1140 nM. In addition, in data set [2], the “inhibition (INH)” value is given as “Not Active”.
The like results for `Brc1ccc(OCCOc2ccc3c(c2)OCCO3)cc1` were, in that order, over 106, 941 nM and “Not Active”.
The like results for `c1ccc(COc2ccc3c(c2)OCO3)cc1` were, in that order, over 195, 513 nM and “Not Active”.
As to `c1ccc(CCOc2ccc3c(c2)OCO3)cc1`, in the data set listed under Homo sapiens, the Ratio IC50 turned out to be 26. In addition, the IC50 in data set [1] was 3310 nM; in data set [3], 87700 nM.
Take `Clc1cccc(COc2ccc3c(c2)OCO3)c1`: the Ratio IC50 in the data set listed under Homo sapiens amounted to 209. For the same compound, the IC50 in data set [1] came to 248 nM; in data set [3], 51800 nM.
The matching figures for `c1ccc(CCCOc2ccc3c(c2)OCO3)cc1`: 11, 7290 nM and 77100 nM.
The like results for `c1ccc(CCCOc2ccc3c(c2)OCCO3)cc1` were, in that order, 74, 947 nM and 70400 nM.
For `Brc1cccc(COc2ccc3c(c2)OCO3)c1`, the Ratio IC50 in the data set filed under Homo sapiens came out at 234. In addition, the IC50 was 164 nM in data set [1] and 38400 nM in data set [3].
The matching figures for `c1ccc(CCOc2ccc3c(c2)OCCO3)cc1`: 579, 48 nM and 27800 nM.
The like results for `c1ccc(OCCOc2ccc3c(c2)OCCO3)cc1` were, in that order, 637, 109 nM and 69400 nM.
Regarding `Brc1cccc(COc2ccc3c(c2)OCCO3)c1`, the Ratio IC50 in the data set filed under Homo sapiens was determined as 375. Moreover, the values for the concentration for half-maximal inhibition (IC50) in data set [1] and in data set [3] were 45 nM and 16900 nM, respectively. Also, the Ki in data set [4] was 41 nM. The results for the Activity in data set [5] and in data set [6] were 21% and 87%, respectively.
As for `Brc1ccc(OCCOc2ccc3c(c2)OCO3)cc1`, in the data set listed under Homo sapiens, the Ratio IC50 is over 14. The IC50 in data set [1] stood at 7070 nM. Further, the “inhibition (INH)” value in data set [2] is on record as “Not Active”.
`Clc1cccc(COc2ccc3c(c2)OCCO3)c1`: the Ratio IC50 in the data set filed under Homo sapiens was 232. The IC50 in data set [1] came out at 57 nM; in data set [3], 13200 nM.
